Test results reported in patent US7435837B2, “Dihydrobenzofuranyl alkanamine derivatives and methods for using same” (Wyeth, priority 2003, dated 2008).

Molecular target: T1, human 5-hydroxytryptamine-2C (h5-HT2C) receptor (Homo sapiens, UniProt P28335)
T1 construct: expressed in transfected cells; host or cells: CHO (Chinese Hamster Ovary) cells; membranes
T1 sequence (P28335 33-458): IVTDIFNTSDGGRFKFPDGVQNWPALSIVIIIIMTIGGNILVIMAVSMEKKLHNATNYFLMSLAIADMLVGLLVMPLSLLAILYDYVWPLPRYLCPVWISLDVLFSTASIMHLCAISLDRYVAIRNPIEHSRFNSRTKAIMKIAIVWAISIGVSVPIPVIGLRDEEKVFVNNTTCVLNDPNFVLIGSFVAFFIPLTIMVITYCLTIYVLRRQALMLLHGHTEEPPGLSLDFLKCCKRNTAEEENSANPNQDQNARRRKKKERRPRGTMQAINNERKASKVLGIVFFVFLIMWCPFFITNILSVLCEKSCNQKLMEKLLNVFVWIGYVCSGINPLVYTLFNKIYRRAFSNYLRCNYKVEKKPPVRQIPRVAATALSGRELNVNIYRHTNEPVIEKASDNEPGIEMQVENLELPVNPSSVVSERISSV
Assay: [125I]DOI binding to membranes of CHO cells expressing the human 5-HT2C receptor
Conditions: [125I]DOI radioligand, CHO cell membranes, room temperature 60 min; read-out: 5-HT2C Affinity Ki

Ki [nM]	SMILES
1550	NCC1Cc2cc(-c3ccc(F)cc3)cc(F)c2O1 (racemic) [Example 387, (±)-{[7-fluoro-5-(4-fluorophenyl)-2,3-dihydro-1-benzofuran-2-yl]methyl}amine]
371	CNCC1Cc2cc(-c3ccccc3)cc(-c3ccccc3Cl)c2O1 (racemic) [Example 505, (±)-{[7-(2-chlorophenyl)-5-phenyl-2,3-dihydro-1-benzofuran-2-yl]methyl}methylamine]
1120	CNCC1Cc2cc(-c3cccc(C(F)(F)F)c3)cc(F)c2O1 (racemic) [Example 536, (±)-{7-fluoro-5-[3-(trifluoromethyl)phenyl]-2,3-dihydro-1-benzofuran-2-yl}methyl)methylamine]
810	CNCC1Cc2cc(-c3ccccc3)cc(-c3cccc(C)c3)c2O1 (racemic) [Example 512, (±)-{[7-(3-methylphenyl)-5-phenyl-2,3-dihydro-1-benzofuran-2-yl]methyl}methylamine]
0.5	NCC1Cc2ccc(Cl)c(-c3ccccc3Cl)c2O1 (racemic) [Example 400, (±)-{[6-chloro-7-(2-chlorophenyl)-2,3-dihydro-1-benzofuran-2-yl]methyl}amine]
372	CNCC1Cc2cc(C(F)(F)F)cc(-c3cccc(F)c3)c2O1 (racemic) [Example 520, (±)-N-methyl-1-[7-(3-fluorophenyl)-5-(trifluoromethyl)-2,3-dihydro-1-benzofuran-2-yl]methanamine]
1580	NCC1Cc2cc(-c3ccc(C(F)(F)F)cc3)cc(F)c2O1 (racemic) [Example 388, (±)-({7-fluoro-5-[4-(trifluoromethyl)phenyl]-2,3-dihydro-1-benzofuran-2-yl}methyl)amine]
486	CNCC1Cc2cc(-c3ccc(F)cc3)cc(F)c2O1 (racemic) [Example 540, (±)-{[7-fluoro-5-(4-fluorophenyl)-2,3-dihydro-1-benzofuran-2-yl]methyl}methylamine]
0.3	NCCC1Cc2ccc(Cl)c(-c3ccccc3Cl)c2O1 (racemic) [Example 552, (±)-{2-[6-chloro-7-(2-chlorophenyl)-2,3-dihydro-1 benzofuran-2-yl]ethyl}amine]
1020	NCC1Cc2cc(-c3ccc(Cl)cc3)cc(F)c2O1 (racemic) [Example 386, (±)-{[7-fluoro-5-(4-chlorophenyl)-2,3-dihydro-1-benzofuran-2-yl]methyl}amine]
87	Cc1ccccc1-c1cc(-c2ccccc2)cc2c1OC(CN)C2 (racemic) [Example 351, (±)-{[7-(2-methylphenyl)-5-phenyl-2,3-dihydro-1-benzofuran-2-yl]methyl}amine]
1600	CNCC1Cc2cc(-c3ccccc3)cc(-c3cccc(Cl)c3)c2O1 (racemic) [Example 506, (±)-{[7-(3-chlorophenyl)-5-phenyl-2,3-dihydro-1-benzofuran-2-yl]methyl}methylamine]
194	NCC1Cc2cc(-c3ccccc3F)cc(F)c2O1 (racemic) [Example 377, (±)-{[7-fluoro-5-(2-fluorophenyl)-2,3-dihydro-1-benzofuran-2-yl]methyl}amine]
192	NCC1Cc2cc(C(F)(F)F)cc(-c3ccc(F)c(Cl)c3)c2O1 (racemic) [Example 335, (±)-{[7-(3-chloro-4-fluorophenyl)-5-(trifluoromethyl)-2,3-dihydro-1-benzofuran-2-yl]methyl}amine]
610	NCC1Cc2cc(-c3ccccc3)cc(-c3ccc(F)cc3F)c2O1 (racemic) [Example 354, (±)-{[7-(2,4-difluorophenyl)-5-phenyl-2,3-dihydro-1-benzofuran-2-yl]methyl}amine]
2.3	CCNC[C@H]1Cc2cc(F)cc(-c3c(Cl)cccc3Cl)c2O1 [Example 546, (R)-[7-(2,6-dichloro-phenyl)-5-fluoro-2,3-dihydro-benzofuran-2-ylmethyl]ethylamine]
1090	CNCC1Cc2cc(-c3ccccc3C)cc(F)c2O1 (racemic) [Example 528, (±)-{[7-fluoro-5-(2-methylphenyl)-2,3-dihydro-1-benzofuran-2-yl]methyl}methylamine]
4740	CNCC1Cc2cc(C(F)(F)F)cc(-c3cc(C(F)(F)F)cc(C(F)(F)F)c3)c2O1 (racemic) [Example 527, (±)-{[7-[3,5-bis(trifluoromethyl)phenyl]-5-(trifluoromethyl)-2,3-dihydro-1-benzofuran-2-yl]methyl}methylamine]
876	Cc1cccc(-c2cc(-c3ccccc3)cc3c2OC(CN)C3)c1 (racemic) [Example 352, (±)-{[7-(3-methylphenyl)-5-phenyl-2,3-dihydro-1-benzofuran-2-yl]methyl}amine]

The remaining lines, values behind:

SMILES	Ki [nM]
NCC1Cc2c(cccc2-c2ccccc2C(F)(F)F)O1 (single isomer, unassigned; (+)) [Example 124, (+)-1-{4-[2-(trifluoromethyl)phenyl]-2,3-dihydro-1-benzofuran-2-yl}methanamine]	53
NCC1Cc2cccc(Nc3ccc(Cl)c(Cl)c3)c2O1 (racemic) [Example 179, (±)-N-[2-(aminomethyl)-2,3-dihydro-1-benzofuran-7-yl]-N-(3,4-dichlorophenyl)amine]	435
NCC1Cc2cc(C(F)(F)F)cc(-c3cccc(F)c3F)c2O1 (racemic) [Example 329, (±)-{[7-(2,3-difluorophenyl)-5-(trifluoromethyl)-2,3-dihydro-1-benzofuran-2-yl]methyl}amine]	87
NCC1Cc2c(cccc2-c2ccccc2)O1 (single isomer, unassigned; (-)) [Example 3, (−)-1-(4-phenyl-2,3-dihydro-1-benzofuran-2-yl)methanamine]	204
CNCC1Cc2cc(Cl)cc(C3CCCCC3)c2O1 (racemic) [Example 12, (±)-N-[(5-chloro-7-cyclohexyl-2,3-dihydro-1-benzofuran-2-yl)methyl]-N-methylamine]	127
Cc1cc2c(c(-c3c(Cl)cccc3Cl)c1)OC(CN)C2 (single isomer, unassigned; (+)) [Example 304, (+)-{[7-(2,6-dichlorophenyl)-5-methyl-2,3-dihydro-1-benzofuran-2-yl]methyl}amine]	1.7
NCC1Cc2cccc(-c3ccccc3)c2O1 (racemic) [Example 36, (±)-1-(7-phenyl-2,3-dihydro-1-benzofuran-2-yl)methanamine]	15
NCC1Cc2ccc(-c3ccccc3)cc2O1 (racemic) [Example 31, (±)-(6-phenyl-2,3-dihydro-1-benzofuran-2-yl)methanamine]	1370
COc1ccc(Nc2cccc3c2OC(CN)C3)cc1C (racemic) [Example 185, (±)-N-[2-(aminomethyl)-2,3-dihydro-1-benzofuran-7-yl]-N-(4-methoxy-3-methylphenyl)amine]	159
Cc1cccc(-c2cc(Cl)cc3c2OC(CN)C3)c1 (racemic) [Example 88, (±)-1-[5-chloro-7-(3-methylphenyl)-2,3-dihydro-1-benzofuran-2-yl]methanamine]	48
NCC1Cc2cccc(-c3cccnc3)c2O1 (single isomer, unassigned; (-)) [Example 172, (−)-{[7-pyridin-3-yl-2,3-dihydro-1-benzofuran-2-yl]methyl}amine]	185
CC(C)(C)/C=C/c1cccc2c1OC(CN)C2 (racemic) [Example 117, (±)-1-{7-[(1E)-3,3-dimethylbut-1-enyl]-2,3-dihydro-1-benzofuran-2-yl}methanamine]	263
NCC1Cc2cccc(-c3ccc(F)cc3)c2O1 (single isomer, unassigned; (-)) [Example 75, (−)-1-[7-(4-fluorophenyl)-2,3-dihydro-1-benzofuran-2-yl]methanamine]	103
Cc1cccc(-c2cccc3c2OC(CN)C3)c1 (racemic) [Example 41, (±)-1-[7-(3-methylphenyl)-2,3-dihydro-1-benzofuran-2-yl]methanamine]	25
COc1ccc2c(c1)OC(CN)C2 (racemic) [Example 30, (±)-1-(6-methoxy-2,3-dihydro-1-benzofuran-2-yl)methanamine]	191
Cc1cc2c(c(-c3c(Cl)cccc3Cl)c1)OC(CN)C2 (single isomer, unassigned; (-)) [Example 303, (−)-{[7-(2,6-dichlorophenyl)-5-methyl-2,3-dihydro-1-benzofuran-2-yl]methyl}amine]	0.2
NCC1Cc2c(C(F)(F)F)ccc(Cl)c2O1 (racemic) [Example 14, (±)-[7-chloro-4-(trifluoromethyl)-2,3-dihydro-1-benzofuran-2-yl]methanamine]	78
Cc1ccc(Nc2cccc3c2OC(CN)C3)c(C)c1 (racemic) [Example 180, (±)-N-[2-(aminomethyl)-2,3-dihydro-1-benzofuran-7-yl]-N-(2,4-dimethylphenyl)amine]	290
NCC1Cc2cc(C(F)(F)F)cc(-c3ccccc3C(F)(F)F)c2O1 (racemic) [Example 317, (±)-{[5-(trifluoromethyl)-7-(2-(trifluoromethyl)phenyl)-2,3-dihydro-1-benzofuran-2-yl]methyl}amine]	84
Cc1ccc(Nc2cccc3c2OC(CN)C3)cc1Cl (racemic) [Example 188, (±)-N-[2-(aminomethyl)-2,3-dihydro-1-benzofuran-7-yl]-N-(3-chloro-4-methylphenyl)amine]	579
Cc1ccc(Nc2cccc3c2OC(CN)C3)cc1 (racemic) [Example 174, (±)-N-[2-(aminomethyl)-2,3-dihydro-1-benzofuran-7-yl]-N-(4-methylphenyl)amine]	203
